From US4593090A, “Novel nitrosourea compounds, method for preparing same, and pharmaceutical composition containing same” (Gogo Kimura, priority 1981, dated 1986)

Columns and labels:
[1] = tested on: Leukemia L1210; test: Activity against Leukemia L1210, intraperitoneal, increase in life span of mice; type: in vivo, female mice (BDF1 family); conditions: for ED (maximum ILS) / ED30: Mus musculus, L1210, ip, ip once a day for 5 successive days; for ED (maximum ILS): daily dosage giving maximum increase of life span, read-out: O.D. (optimum dosage); for ED30: daily dosage increasing average survival days by 30%, read-out: ILS30; for Survivors after 60 days / Max. ILS % / Therapeutic ratio TR: ip; for Survivors after 60 days: 6-membered group; for Max. ILS %: 60-day observation, versus control; for Therapeutic ratio TR: O.D./ILS30
Method: Tests were conducted in accordance with the method for measuring antitumor activity of National Cancer Center Tokyo (A, Hoshi et al, Farumashia 9 464 (1973)). Test compounds were each intraperitoneally (referred to as ip) or orally (referred to as op) administered once a day for 5 successive days to a 6-membered group of femal mice (BDF1 family, each weighing 20 to 23 g) 24 hours after 1×10^5 cells of Leukemia L1210 have been implantated into the abdominal cavities of the mice, and the effect was evaluated by comparing the survival days of treated groups with those of an untreated group of mice (control group) in 60-day observation. An increase percentage of life span (ILS%) was calculated from said average survival days compared with those of the control group. Further, therapeutic ratio (O.D./ILD30, referred to as T.R.) of each tested compound was calculated from the daily dosage of the compound necessary to increase said average survival days by 30% as compared with the control group (this dosage is referred to as ILS 30) and the daily dosage giving a maximum increase of life span to mice implantated with L1210 cells, namely an optimum dosage (referred to as O.D.). The results of five successive days intraperitoneal administrations of test compounds were shown in Tables I to III, and those of five successive oral administrations in Table IV.

[2] = Acute toxicity (LD50, Behrens-Karber method); type: in vivo, ICR mice; conditions: mouse, in vivo, ip, mortality during 30 days
Method: Test compounds, dissolved or suspended in 0.5% aqueous CMC, were each intraperitoneally administered to ICR mice in a dose of 0.1 ml per 10 g body weight. LD50 (mg/kg) value of each test compound was calculated from the mortality of mice during 30 days by the Behrens-Karber method.

With `CCCC(OC)O[C@H]1O[C@H](CN(CCC(C)(C)C)C(=O)N(CCCl)N=O)[C@@H](O)[C@H](O)[C@H]1O` (stereo partly drawn) [Compound 191, 3-(3,3-dimethyl-n-butyl)-3-(1-methoxy-n-butyl α-D-glucopyranose-6-yl)-1-(2-chloroethyl)-1-nitrosourea] the ED (maximum ILS) [1] was 160 mg/kg, the ED30 [1] was 2.64 mg/kg and the “Survivors after 60 days” value [1] was 6/6. The “Max. ILS %” value [1] was over 700%, the “Therapeutic ratio TR” value [1] was 60.6 and the LD50 at 720 h [2] was 560 mg/kg.

In the case of `CC(C)CO[C@H]1O[C@H](CO)[C@H](N(CC(C)C)C(=O)N(CCCl)N=O)[C@H](O)[C@H]1O` [Compound 129, 3-isobutyl-3-(isobutyl α-D-garactopyranose-4-yl)-1-(2-chloroethyl)-1-nitrosourea], the ED (maximum ILS) [1] is reported as 200 mg/kg, the ED30 [1] is reported as 5.21 mg/kg and the “Survivors after 60 days” value [1] is reported as 3/6. For the same molecule, the “Max. ILS %” value [1] was over 350%, the “Therapeutic ratio TR” value [1] was 38.4 and the LD50 at 720 h [2] was 600 mg/kg.

With `CCCCN(C[C@@H]1O[C@@H](OCC2CC2)[C@@H](O)[C@H](O)[C@@H]1O)C(=O)N(CCCl)N=O` [Compound 134, 3-n-butyl-3-(cyclopropylmethyl α-L-galactopyranose-6-yl)-1-(2-chloroethyl)-1-nitrosourea] the ED (maximum ILS) [1] was 150 mg/kg, the ED30 [1] was 3.73 mg/kg and the “Survivors after 60 days” value [1] was 3/6. For the same molecule, the “Max. ILS %” value [1] was over 365%, the “Therapeutic ratio TR” value [1] was 40.2 and the LD50 at 720 h [2] was 490 mg/kg.

For `CC(C)COC1OC(CO)C(N(C(=O)N(CCCl)N=O)C(C)C)C(O)C1O` [Compound 92, 3-isopropyl-3-(isobutyl α-D-glucopyranose-4-yl)-1-(2-chloroethyl)-1-nitrosourea], the ED (maximum ILS) [1] was 100 mg/kg, the ED30 [1] was 3.14 mg/kg and the “Survivors after 60 days” value [1] was 3/6. For the same molecule, the “Max. ILS %” value [1] was over 360%, the “Therapeutic ratio TR” value [1] was 31.8 and the LD50 at 720 h [2] was 335 mg/kg.

With `C=C(C)CN(C(=O)N(CCCl)N=O)[C@H]1[C@@H](OCCCC)O[C@H](CO)[C@@H](O)[C@@H]1O` [Compound 56, 3-(2-methyl-2-propenyl)-3-(n-butyl α-D-glucopyranose-2-yl)-1-(2-chloroethyl)-1-nitrosourea] the ED (maximum ILS) [1] was 170 mg/kg, the ED30 [1] was 5.38 mg/kg and the “Survivors after 60 days” value [1] was 3/6. The “Max. ILS %” value [1] was over 360%, the “Therapeutic ratio TR” value [1] was 31.6 and the LD50 at 720 h [2] was 460 mg/kg.

In the case of `CCCCO[C@H]1O[C@H](CN(CC(C)C)C(=O)N(CCCl)N=O)[C@@H](O)[C@H](O)[C@H]1O` [Compound 9, 3-isobutyl-3-(n-butyl α-D-glucopyranose-6-yl)-1-(2-chloroethyl)-1-nitrosourea], the ED (maximum ILS) [1] is reported as 150 mg/kg, the ED30 [1] is reported as 3.33 mg/kg and the “Survivors after 60 days” value [1] is reported as 6/6. The “Max. ILS %” value [1] was over 700%, the “Therapeutic ratio TR” value [1] was 45.0 and the LD50 at 720 h [2] was 440 mg/kg.

In the case of `COc1ccc(CN(C[C@H]2O[C@H](OC3CCCCC3)[C@H](O)[C@@H](O)[C@@H]2O)C(=O)N(CCCl)N=O)cc1` [Compound 48, 3-(p-methoxybenzyl)-3-(cyclohexyl α-D-glucopyranose-6-yl)-1-(2-chloroethyl)-1-nitrosourea], the ED (maximum ILS) [1] is reported as 170 mg/kg, the ED30 [1] is reported as 4.64 mg/kg and the “Survivors after 60 days” value [1] is reported as 4/6. The “Max. ILS %” value [1] was over 445%, the “Therapeutic ratio TR” value [1] was 36.6 and the LD50 at 720 h [2] was 530 mg/kg.

In the case of `COc1ccc(CO[C@H]2O[C@H](CN(CC(C)C)C(=O)N(CCCl)N=O)[C@@H](O)[C@H](O)[C@H]2O)cc1` [Compound 51, 3-isobutyl-3-(p-methoxybenzyl α-D-glucopyranose-6-yl)-1-(2-chloroethyl)-1-nitrosourea], the ED (maximum ILS) [1] is reported as 120 mg/kg, the ED30 [1] is reported as 3.3 mg/kg and the “Survivors after 60 days” value [1] is reported as 4/6. The “Max. ILS %” value [1] was over 430%, the “Therapeutic ratio TR” value [1] was 36.4 and the LD50 at 720 h [2] was 350 mg/kg.

For `CCC(C)O[C@H]1O[C@H](CN(CC(C)C)C(=O)N(CCCl)N=O)[C@@H](O)[C@H](O)[C@H]1O` (stereo partly drawn) [Compound 17, 3-isobutyl-3-(sec-butyl α-D-glucopyranose-6-yl)-1-(2-chloroethyl)-1-nitrosourea], the ED (maximum ILS) [1] was 170 mg/kg, the ED30 [1] was 3.55 mg/kg and the “Survivors after 60 days” value [1] was 6/6. For the same molecule, the “Max. ILS %” value [1] was over 700%, the “Therapeutic ratio TR” value [1] was 47.9 and the LD50 at 720 h [2] was 510 mg/kg.

For `CO[C@H]1O[C@H](CO)[C@@H](O)[C@H](NC(=O)N(CCCl)N=O)[C@H]1O` [KCNUM, 3-(methyl α-D-glucopyranose-3-yl)-1-(2-chloroethyl)-1-nitrosourea, reference compound], the ED (maximum ILS) [1] was 25.4 mg/kg, the ED30 [1] was 1.38 mg/kg and the “Survivors after 60 days” value [1] was 4/6. The “Max. ILS %” value [1] was over 425%, the “Therapeutic ratio TR” value [1] was 18.4 and the LD50 at 720 h [2] was 130 mg/kg.
